Laboratory results from article PMC8063472, “Pharmacokinetics of five phthalides in volatile oil of Ligusticum sinense Oliv.cv. Chaxiong, and comparison study on physicochemistry and pharmacokinetics after being formulated into solid dispersion and inclusion compound” (BMC Complementary Medicine and Therapies, 2021).
Where two headings read alike, the source gives them in different places.

What was measured:
[1] = In vitro dissolution, paddle method, pH 5.8 phosphate buffer; format: physicochemical
Description: Dissolution studies were performed according to the USP XXI method 2 (paddle method) at 37 ± 0.5 °C at 50 rpm. 900 ml of dissolution medium were used as standard volume. Dissolution samples (1 mL) were withdrawn at the specified times of 15, 30, 45, 60, 90, 120 min from Dissolution cups, and 1 ml of dissolution medium was replenished in the same time. Samples were filtered through a 0.45 μm nylon disc filter and were measured absorbance at 230 nm by HPLC [11].

[2] = Pharmacokinetic study in rats (plasma LC-MS/MS) after iv or oral VOC, oral VOC-P188 or oral VOC-β-CD; format: in vivo, Sprague Dawley rats; details: for AUC(0-t) / MRT last / Tmax / half-life / Cmax / bioavailability: male, Sprague-Dawley, rat, plasma; for MRT last: read-out: MRT0-t; for half-life: read-out: t1/2β (converted); for bioavailability: VOC-P188 and VOC-β-CD po, read-out: bioavailability in the two preparations
Description: The intravenous injection solution was prepared by dissolving 0.15 g of VOC in 25 ml water containing 3 ml 10% Tween-80 as solubilizer. The oral solution was prepared by dissolving 0.35 g of VOC in 25 ml normal saline containing 3 ml 10% Tween-80 as solubilizer. The VOC-P188 solution was prepared by mixing VOC-P188 5 g in 25 ml water with magnetic stirring apparatus. The VOC-β-CD solution was prepared by mixing VOC-β-CD 3.5 g in 25 ml water with magnetic stirring apparatus.
Twenty-four male SD rats (220 ~ 250 g) were randomly divided into four groups, 6 in each group. After fasting for 12 h before administration, the rats in group 1 were given VOC by tail vein injection at a dose of 30 mg/Kg, the rats at second group were oral administration of VOC solution, the dosage was 120 mg/Kg based on the mass of VOC. The rats at groups 3 and 4 were given VOC-P188 and VOC-β-CD, respectively.
Blood samples (0.3 ml) were collected from the eyes at 0.08, 0.17, 0.33, 0.5, 1, 1.5, 2, 4, 6, 8, 12 and 24 h after administration, and they were immediately transferred into a heparinized Eppendorf (EP) tube. The blood samples were then centrifuged at 13,000 r/min for 10 min. The plasma samples were stored at − 80 °C for later analysis.
The thawed plasma sample (0.1 ml) was transferred to another EP tube and 20 μl of DL, 50 μl of 2% formic acid and 500 μl of methanol were added. The mixture was vortexed for 2 min, and centrifuged at 13000 r/min for 10 min. The supernatant was transferred into a clean EP tube, and evaporated to dryness under a stream of nitrogen at 40 °C. The residue was dissolved in 100 μl of methanol. The supernatant was injected into the HPLC system.
An HPLC system consisting of a solvent-delivery system LC-30 AD, an autosampler SIL-30 AC, a column oven CTO-30 AC, a solvent degasser DGU-20A3, and a controller CBM-20A from […] was used in the study. Separation was conducted using a Shim-pack GIST C18-AQ HP column (2.1 mm × 100 mm, 3 μm). The column oven was maintained at 35 °C. The mobile phase was 0.1% formic acid in water as mobile phase A and acetonitrile as mobile phase B. The linear gradient elution program was set according to preliminary tests: 45–60% B, 0–2 min; 60–65% B, 2–6 min; 65–95% B, 6–7 min; 95–45% B, 7–9 min and 45% B, 9–10 min, with the flow rate kept at 0.3 ml/min. The injection volume was set at 2 μl.
The MS analysis was performed on a 4500 QTRAP™ system from Applied Biosystems (AB Sciex) equipped with Turbo V sources and Turbo Ion Spray™ (TIS) interface. Electrospray ionization was performed in positive mode. Ion source: electrospray ion source (ESI source); detection method: multiple reaction monitoring (MRM); ion source temperature: 500 °C; desolvent gas temperature: 550 °C; desolvent gas flow rate: 800 l/h. The detection ion pair, retention time, declustering voltage and collision energy of each index component and internal standard were shown in Table 2.
The plasma SA, NBP, NOL, ZL and BP concentrations were evaluated using the equation from the standard curves that were run with each batch of samples. The plasma concentration-time data were analyzed with the Drug and Statistics 2.0 software package to determine the pharmacokinetic parameters. The observed Cmax value was obtained from the observed data and the observed AUC0 → t value was calculated using the trapezoidal rule. The absolute bioavailability of VOC and the relative bioavailability of VOC-P188 and VOC-β-CD were calculated, the formula for calculating absolute bioavailability (F1) and relative bioavailability (F2): F1=AUCpo×Div/AUCiv×Dpo×100% […]
Where AUC is the area under the temporal curve of blood drug concentration (μg/l*h), D is administration dosage (mg/kg); the subscripts iv and po are injection and oral administration, respectively; the subscript R is reference drug (VOC); the subscript T is solid dispersion or inclusion compound.

[3] = set-up: method as in PMID 18039808; details: cited from earlier work
[4] = Stability test of VOC-P188 and VOC-β-CD (temperature, illumination); format: physicochemical
[5] = VOC iv 30 mg/kg, rat plasma, n = 6
[6] = VOC po 120 mg/kg, rat plasma, n = 6
[7] = VOC-P188 solid dispersion po vs VOC po, rats
[8] = VOC-P188 solid dispersion po, rat plasma, n = 6
[9] = VOC-β-CD inclusion compound po vs VOC po, rats
[10] = VOC-β-CD inclusion compound po, rat plasma, n = 6
[11] = iv, 30 mg/kg, VOC iv 30 mg/kg, rat plasma, n = 6
[12] = iv, 30 mg/kg, VOC iv 30 mg/kg, rat plasma, n = 6, read-out: Tmax
[13] = iv, 30 mg/kg, VOC iv (tail vein) 30 mg/kg, rat plasma, n = 6
[14] = po, 120 mg/kg, VOC po 120 mg/kg, rat plasma, n = 6
[15] = po, 120 mg/kg, VOC po 120 mg/kg, rat plasma, n = 6, read-out: Tmax
[16] = po, VOC-P188 solid dispersion po, rat plasma, n = 6
[17] = po, VOC-P188 solid dispersion po, rat plasma, n = 6, read-out: Tmax
[18] = po, VOC-β-CD inclusion compound po, rat plasma, n = 6
[19] = po, VOC-β-CD inclusion compound po, rat plasma, n = 6, read-out: Tmax

For `CCC/C=C1\OC(=O)c2ccccc21` [BP], the “solubility in pH 5.8 PBS” value [1] was “poor solubility”, the t1/2α [2, 5] was 0.04 ± 0.04 h and the t1/2α [2, 6] was 1.38 ± 1.02 h. The “F2 (relative bioavailability)” value [2, 7] was 251.50%, the t1/2α [2, 8] was 2.72 ± 3.66 h and the “F2 (relative bioavailability)” value [2, 9] was 363.55%. For the same compound, the t1/2α [2, 10] was 7.02 ± 5.42^* h, the AUC(0-t) [2, 11] was 198 ± 42.8 ng·h/mL and the MRT last [2, 11] was 1.28 ± 0.32 h. The Tmax [2, 12] was 0.083 h, the half-life [2, 11] was 0.7 ± 0.54 h and the Cmax [2, 13] was 373 ± 155 ng/mL. For the same compound, the AUC(0-t) [2, 14] was 99.1 ± 23.3 ng·h/mL, the Cmax [2, 14] was 43.7 ± 10.9 ng/mL and the MRT last [2, 14] was 3.46 ± 1.08 h. It also gave a Tmax [2, 15] of 0.5 ± 0.28 h, a half-life [2, 14] of 3.74 ± 3.26 h and a Tmax ([2]; po, 120 mg/kg, after oral administration of VOC, rats, read-out: Tmax (time of peak concentration)) of less than 0.5 h. It also gave a bioavailability ([2]; po, rats) of less than 50%, an AUC(0-t) [2, 16] of 249 ± 24.5 ng·h/mL and a Cmax [2, 16] of 40.3 ± 8.37 ng/mL. For the same compound, the MRT last [2, 16] was 7.42 ± 0.6 h, the Tmax [2, 17] was 0.42 ± 0.33 h and the half-life [2, 16] was 8.64 ± 2.44 h. The AUC(0-t) [2, 18] was 298 ± 31.7 ng·h/mL, the Cmax [2, 18] was 38.8 ± 16 ng/mL and the MRT last [2, 18] was 8.45 ± 0.77 h. The Tmax [2, 19] was 0.35 ± 0.19 h and the half-life [2, 18] was 19.6 ± 5.63 h.

In the case of `CCC/C=C1\OC(=O)C2=C1CCC=C2` [ZL, Z-ligustilide], the Oral bioavailability [3] is listed as 2.6%, the “solubility in pH 5.8 PBS” value [1] is listed as “poor solubility” and the t1/2α [2, 5] is listed as 0.04 ± 0.04 h. The t1/2α [2, 6] was 0.82 ± 0.51 h, the “F2 (relative bioavailability)” value [2, 7] was 163.35% and the t1/2α [2, 8] was 4.40 ± 4.10^* h. For the same compound, the “F2 (relative bioavailability)” value [2, 9] was 224.54%, the t1/2α [2, 10] was 4.72 ± 1.92^* h and the AUC(0-t) [2, 11] was 1240 ± 435 ng·h/mL. It also gave an MRT last [2, 11] of 0.45 ± 0.1 h, a Tmax [2, 12] of 0.083 h and a half-life [2, 11] of 0.55 ± 0.66 h. For the same compound, the Cmax [2, 13] was 4530 ± 1450 ng/mL, the AUC(0-t) [2, 14] was 504 ± 53.3 ng·h/mL and the Cmax [2, 14] was 214 ± 76 ng/mL. The MRT last [2, 14] was 3.94 ± 0.54 h, the Tmax [2, 15] was 0.22 ± 0.09 h and the half-life [2, 14] was 5.48 ± 2.61 h. It also gave a bioavailability ([2]; po, rats) of less than 50%, an AUC(0-t) [2, 16] of 801 ± 199 ng·h/mL and a Cmax [2, 16] of 320 ± 286 ng/mL. For the same compound, the MRT last [2, 16] was 5.95 ± 0.49 h, the Tmax [2, 17] was 0.49 ± 0.42 h and the half-life [2, 16] was 8.91 ± 5.25 h. For the same compound, the AUC(0-t) [2, 18] was 883 ± 211 ng·h/mL, the Cmax [2, 18] was 145 ± 24.8 ng/mL and the MRT last [2, 18] was 7.31 ± 0.33 h. For the same compound, the Tmax [2, 19] was 0.4 ± 0.17 h, the half-life [2, 18] was 5.96 ± 2.9 h and the “content decreased by” value ([4]; in VOC-P188, 60 °C for 10 days) was 38.9%. The “content decreased by” value ([4]; in VOC-β-CD, 60 °C for 10 days) was 20.3%.
